ChEMBL document CHEMBL5506036, “Exploring the Structural Attributes of Yoda1 for the Development of New-Generation Piezo1 Agonist Yaddle1 as a Vaccine Adjuvant Targeting Optimal T Cell Activation” (J Med Chem, 2024)
Values after ≈ are worked out from the molar mass of the structure shown. Active and inactive are the calls of the source. No cut-off for these calls is given here.

What was measured:
[1] = target: T1, Piezo-type mechanosensitive ion channel component 1 (Homo sapiens, UniProt Q92508); assay: Agonist activity at PIEZO1 in human CD4+ T cell assessed as fold increase in intracellular calcium influx measured for 30 mins by flow cytometry analysis; assay type: cell-based
[2] = target: T1, Piezo-type mechanosensitive ion channel component 1; assay: Agonist activity at human PIEZO1 overexpressing HEK293-A cells co-expressing mCherry-piezo1 assessed as fold change in calcium influx at 10 uM by fluo-3 based real-time flow cytometric analysis; assay type: cell-based
[3] = target: T1, Piezo-type mechanosensitive ion channel component 1; assay: Agonist activity at human PIEZO1 overexpressing HEK293-A cells co-expressing mCherry-piezo1 assessed as induction of calcium influx by measuring maximum efficacy in fold change by fluo-3 based real-time flow cytometric analysis; assay type: cell-based; settings: filed as agonist
[4] = target: T1, Piezo-type mechanosensitive ion channel component 1; assay: Agonist activity at human PIEZO1 overexpressing HEK293-A cells co-expressing mCherry-piezo1 assessed as induction of calcium influx by fluo-3 based real-time flow cytometric analysis; assay type: cell-based
[5] = target: T1, Piezo-type mechanosensitive ion channel component 1; assay: Agonist activity at human PIEZO1 overexpressing HEK293-A cells co-expressing mCherry-piezo1 assessed as fold change in calcium influx at 15 uM by fluo-3 based real-time flow cytometric analysis; assay type: cell-based
[6] = target: T1, Piezo-type mechanosensitive ion channel component 1; assay: Agonist activity at human PIEZO1 overexpressing HEK293-A cells co-expressing mCherry-piezo1 assessed as fold change in calcium influx at 1 uM by fluo-3 based real-time flow cytometric analysis; assay type: cell-based
[7] = target: T1, Piezo-type mechanosensitive ion channel component 1; assay: Agonist activity at human PIEZO1 overexpressing HEK293-A cells co-expressing mCherry-piezo1 assessed as fold change in calcium influx at 20 uM by fluo-3 based real-time flow cytometric analysis; assay type: cell-based
[8] = target: T1, Piezo-type mechanosensitive ion channel component 1; assay: Agonist activity at human PIEZO1 overexpressing HEK293-A cells co-expressing mCherry-piezo1 assessed as fold change in calcium influx at 5 uM by fluo-3 based real-time flow cytometric analysis; assay type: cell-based
[9] = target: T1, Piezo-type mechanosensitive ion channel component 1; assay: Agonist activity at human PIEZO1 overexpressing HEK293-A cells co-expressing mCherry-piezo1 assessed as fold change in calcium influx at 0.5 uM by fluo-3 based real-time flow cytometric analysis; assay type: cell-based
[10] = target: T1, Piezo-type mechanosensitive ion channel component 1; assay: Agonist activity at human PIEZO1 overexpressing HEK293-A cells co-expressing mCherry-piezo1 assessed as fold change in calcium influx at 0.1 uM by fluo-3 based real-time flow cytometric analysis; assay type: cell-based
[11] = Kinetic aqueous solubility of compound in PBS at pH 7.4 measured after 24 hrs by HPLC-UV analysis; assay type: physicochemical; settings: read-out: Kinetic_solubility
[12] = target: T1, Piezo-type mechanosensitive ion channel component 1; assay: Agonist activity at human PIEZO1 overexpressing HEK293-A cells co-expressing mCherry-piezo1 assessed as fold change in calcium influx at 25 uM by fluo-3 based real-time flow cytometric analysis; assay type: cell-based
[13] = Cytotoxicity against human PBMC cells assessed as decrease in cell viability at 0.1 to 5 uM incubated for 6 hrs by MTT assay; assay type: toxicity, cell-based; settings: dose 0.1-5 µM
[14] = Cytotoxicity against human PBMC cells assessed as decrease in cell viability at 20 uM incubated for 24 hrs by MTT assay; assay type: toxicity, cell-based
[15] = target: T1, Piezo-type mechanosensitive ion channel component 1; assay: Agonist activity at PIEZO1 in human CD4+ T cell assessed as intracellular calcium influx measured for 30 mins by flow cytometry analysis; assay type: cell-based

T1 sequence (Q92508 whole entry): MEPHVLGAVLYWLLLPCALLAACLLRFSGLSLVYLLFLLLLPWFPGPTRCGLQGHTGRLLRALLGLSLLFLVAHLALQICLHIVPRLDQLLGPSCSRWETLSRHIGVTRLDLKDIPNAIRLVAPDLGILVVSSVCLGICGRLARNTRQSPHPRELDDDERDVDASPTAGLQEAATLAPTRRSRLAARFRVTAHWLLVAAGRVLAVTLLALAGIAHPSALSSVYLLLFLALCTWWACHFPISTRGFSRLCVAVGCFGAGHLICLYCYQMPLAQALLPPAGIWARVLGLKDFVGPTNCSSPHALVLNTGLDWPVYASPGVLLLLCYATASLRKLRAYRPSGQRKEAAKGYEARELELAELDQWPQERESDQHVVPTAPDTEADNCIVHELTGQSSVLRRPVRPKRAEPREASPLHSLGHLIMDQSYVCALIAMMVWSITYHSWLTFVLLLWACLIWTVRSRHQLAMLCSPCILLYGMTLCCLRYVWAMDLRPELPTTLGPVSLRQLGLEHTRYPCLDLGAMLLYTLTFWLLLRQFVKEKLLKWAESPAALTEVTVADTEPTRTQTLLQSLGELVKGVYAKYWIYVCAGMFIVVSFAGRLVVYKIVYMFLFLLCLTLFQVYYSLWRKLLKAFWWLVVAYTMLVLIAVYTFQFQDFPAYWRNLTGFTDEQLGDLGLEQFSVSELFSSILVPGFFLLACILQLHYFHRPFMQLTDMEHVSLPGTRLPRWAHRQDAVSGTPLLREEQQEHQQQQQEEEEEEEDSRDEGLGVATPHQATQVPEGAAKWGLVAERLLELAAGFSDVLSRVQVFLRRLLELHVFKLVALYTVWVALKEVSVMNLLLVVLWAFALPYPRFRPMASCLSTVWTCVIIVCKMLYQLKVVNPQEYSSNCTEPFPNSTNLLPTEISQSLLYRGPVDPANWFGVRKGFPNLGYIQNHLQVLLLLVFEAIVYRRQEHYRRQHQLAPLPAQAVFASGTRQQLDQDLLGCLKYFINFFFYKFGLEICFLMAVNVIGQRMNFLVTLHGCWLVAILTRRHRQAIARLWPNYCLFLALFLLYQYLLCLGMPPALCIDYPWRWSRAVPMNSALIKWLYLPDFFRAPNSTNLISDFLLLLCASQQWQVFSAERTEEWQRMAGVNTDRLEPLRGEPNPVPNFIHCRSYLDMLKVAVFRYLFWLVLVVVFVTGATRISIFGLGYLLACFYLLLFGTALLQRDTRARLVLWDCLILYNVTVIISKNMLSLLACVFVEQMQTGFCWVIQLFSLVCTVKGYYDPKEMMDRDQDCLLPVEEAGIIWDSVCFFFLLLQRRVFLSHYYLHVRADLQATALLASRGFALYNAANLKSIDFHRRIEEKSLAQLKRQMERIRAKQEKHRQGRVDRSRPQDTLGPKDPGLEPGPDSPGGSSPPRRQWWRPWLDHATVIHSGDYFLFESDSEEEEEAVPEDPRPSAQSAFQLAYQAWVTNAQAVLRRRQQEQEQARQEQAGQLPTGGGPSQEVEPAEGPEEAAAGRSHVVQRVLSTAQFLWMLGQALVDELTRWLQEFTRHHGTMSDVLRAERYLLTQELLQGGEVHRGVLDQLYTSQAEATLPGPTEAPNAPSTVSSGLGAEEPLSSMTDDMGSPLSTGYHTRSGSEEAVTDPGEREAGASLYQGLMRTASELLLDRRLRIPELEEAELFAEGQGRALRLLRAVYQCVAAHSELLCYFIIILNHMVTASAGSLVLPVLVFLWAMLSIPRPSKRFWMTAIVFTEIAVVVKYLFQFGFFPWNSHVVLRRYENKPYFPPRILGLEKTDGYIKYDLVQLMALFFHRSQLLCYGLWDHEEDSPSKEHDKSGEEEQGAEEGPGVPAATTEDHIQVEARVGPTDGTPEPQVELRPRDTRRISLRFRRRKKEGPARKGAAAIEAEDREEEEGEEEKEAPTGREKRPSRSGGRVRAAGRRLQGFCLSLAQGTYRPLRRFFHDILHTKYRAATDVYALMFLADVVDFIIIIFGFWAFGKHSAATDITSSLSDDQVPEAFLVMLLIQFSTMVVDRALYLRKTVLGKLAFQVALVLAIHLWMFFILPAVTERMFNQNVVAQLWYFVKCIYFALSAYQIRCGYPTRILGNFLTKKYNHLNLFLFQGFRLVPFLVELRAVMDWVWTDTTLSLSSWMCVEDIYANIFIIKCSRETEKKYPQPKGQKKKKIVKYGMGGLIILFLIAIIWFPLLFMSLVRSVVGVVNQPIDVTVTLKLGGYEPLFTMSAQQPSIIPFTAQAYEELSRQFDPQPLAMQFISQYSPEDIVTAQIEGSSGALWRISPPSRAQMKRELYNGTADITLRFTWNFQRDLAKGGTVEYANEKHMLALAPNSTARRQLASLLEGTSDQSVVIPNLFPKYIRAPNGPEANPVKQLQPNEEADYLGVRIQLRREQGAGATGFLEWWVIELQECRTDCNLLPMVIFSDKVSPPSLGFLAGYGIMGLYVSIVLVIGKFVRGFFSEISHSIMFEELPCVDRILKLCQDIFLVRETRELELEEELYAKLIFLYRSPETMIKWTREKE

| fold change (FC) [1] | fold change (FC) [2] | fold change (FC) [3] | EC50 [4] [nM] | fold change (FC) [5] | fold change (FC) [6] | fold change (FC) [7] | fold change (FC) [8] | fold change (FC) [9] | fold change (FC) [10] | solubility kinetic at 24 h [11] [µM] | Activity [12] | Activity [15] | SMILES | Activity [13] | Activity [14] |
| --- | --- | --- | --- | --- | --- | --- | --- | --- | --- | --- | --- | --- | --- | --- | --- |
| > 2 | > 1.2 | 2.07 | 1340 | > 1.2 | > 1.2 | > 1.2 | > 1.2 | < 1.2 | < 1.2 | – | – | – | Clc1cccc(Cl)c1CSc1nnc(-c2cnccn2)o1 | – | – |
| – | – | – | – | < 1.2 | – | < 1.2 | – | – | – | – | – | – | c1ccc(CSc2nnc(-c3cnccn3)o2)cc1 | – | – |
| – | < 1.2 | – | – | < 1.2 | < 1.2 | < 1.2 | < 1.2 | < 1.2 | < 1.2 | – | – | – | O=c1oc(-c2cnccn2)nn1Cc1c(Cl)cccc1Cl | – | – |
| – | – | – | – | < 1.2 | – | < 1.2 | – | – | – | – | – | – | Ic1ccccc1CSc1nnc(-c2cnccn2)o1 | – | – |
| – | > 1.2 | 2.4 | 500 | > 1.2 | > 1.2 | > 1.2 | > 1.2 | > 1.2 | < 1.2 | 1.22 (≈ 0.433 µg/mL) | – | – | Clc1cccc(Cl)c1CSc1nnc(-c2cnccn2)s1 | – | – |
| > 2 | > 1.2 | 2.5 | 2100 | < 1.2 | > 1.2 | > 1.2 | > 1.2 | > 1.2 | < 1.2 | – | – | – | Brc1cccc(Br)c1CSc1nnc(-c2cnccn2)o1 | – | – |
| – | < 1.2 | – | – | < 1.2 | < 1.2 | < 1.2 | < 1.2 | < 1.2 | < 1.2 | – | – | – | Clc1cccc(Cl)c1CSc1nnc(-c2ccc[nH]2)o1 | – | – |
| – | > 1.2 | 2.7 | 460 | > 1.2 | > 1.2 | > 1.2 | > 1.2 | > 1.2 | > 1.2 | – | – | – | FC(F)(F)c1cccc(Br)c1CSc1nnc(-c2cnccn2)o1 | – | – |
| – | – | – | – | < 1.2 | – | < 1.2 | – | – | – | – | inactive | – | Clc1ccccc1CSc1nnc(-c2cnccn2)[nH]1 | – | – |
| – | < 1.2 | – | – | < 1.2 | < 1.2 | < 1.2 | < 1.2 | < 1.2 | < 1.2 | – | – | – | Clc1cccc(Cl)c1CNc1nnc(-c2cnccn2)o1 | – | – |
| > 2 | > 1.2 | 2.6 | 400 | > 1.2 | > 1.2 | > 1.2 | > 1.2 | > 1.2 | > 1.2 | 26.7 (≈ 9.96 µg/mL) | – | – | FC(F)(F)c1cccc(Cl)c1CSc1nnc(-c2cnccn2)o1 | Non-Toxic | Non-Toxic |
| – | – | – | – | < 1.2 | – | < 1.2 | – | – | – | – | – | – | Fc1ccccc1CSc1nnc(-c2cnccn2)o1 | – | – |
| – | – | – | – | < 1.2 | – | < 1.2 | – | – | – | – | inactive | – | Clc1cccc(Cl)c1CSc1nnc(-c2cnccn2)[nH]1 | – | – |
| – | > 1.2 | 1.25 | 570 | > 1.2 | < 1.2 | > 1.2 | < 1.2 | < 1.2 | < 1.2 | – | – | – | Clc1ccc(Cl)c(CSc2nnc(-c3cnccn3)o2)c1 | – | – |
| – | – | – | – | < 1.2 | – | < 1.2 | – | – | – | – | – | – | Brc1ccccc1CSc1nnc(-c2cnccn2)o1 | – | – |
| – | – | – | – | < 1.2 | – | < 1.2 | – | – | – | – | – | – | Clc1ccccc1CSc1nnc(-c2cnccn2)o1 | – | – |
| – | – | – | – | < 1.2 | – | < 1.2 | – | – | – | – | – | – | O=[N+]([O-])c1ccccc1CSc1nnc(-c2cnccn2)o1 | – | – |
| – | – | – | – | – | – | – | – | – | – | 14.4 (≈ 3.85 µg/mL) | – | – | CC/C(=C(/CC)c1ccc(O)cc1)c1ccc(O)cc1 [DIETHYLSTILBESTROL] | – | – |

| fold change (FC) [1] | fold change (FC) [2] | fold change (FC) [3] | EC50 [4] [nM] | fold change (FC) [5] | fold change (FC) [6] | fold change (FC) [7] | fold change (FC) [8] | fold change (FC) [9] | fold change (FC) [10] | solubility kinetic at 24 h [11] [µM] | Activity [12] | Activity [15] | SMILES | Activity [13] | Activity [14] |
| --- | --- | --- | --- | --- | --- | --- | --- | --- | --- | --- | --- | --- | --- | --- | --- |
| – | > 1.2 | 1.7 | 550 | > 1.2 | > 1.2 | > 1.2 | > 1.2 | > 1.2 | < 1.2 | – | – | – | FC(F)(F)c1ccc(Cl)cc1CSc1nnc(-c2cnccn2)o1 | – | – |
| – | > 1.2 | 1.55 | 1090 | < 1.2 | < 1.2 | > 1.2 | > 1.2 | < 1.2 | < 1.2 | – | – | – | Fc1cccc(Cl)c1CSc1nnc(-c2cnccn2)o1 | – | – |
| – | > 1.2 | 1.35 | 2060 | > 1.2 | < 1.2 | > 1.2 | < 1.2 | < 1.2 | < 1.2 | – | – | inactive | FC(F)(F)c1ccccc1CSc1nnc(-c2cnccn2)o1 | Non-Toxic | Non-Toxic |
| – | > 1.2 | 1.68 | 1000 | > 1.2 | > 1.2 | > 1.2 | > 1.2 | < 1.2 | < 1.2 | – | – | inactive | FC(F)(F)c1ccc(C(F)(F)F)c(CSc2nnc(-c3cnccn3)o2)c1 | – | – |
| – | – | – | – | < 1.2 | – | < 1.2 | – | – | – | – | – | – | N#Cc1ccccc1CSc1nnc(-c2cnccn2)o1 | – | – |
| > 2 | > 1.2 | 2.9 | 1040 | < 1.2 | > 1.2 | > 1.2 | > 1.2 | > 1.2 | < 1.2 | – | – | – | Clc1cccc(Br)c1CSc1nnc(-c2cnccn2)o1 | – | – |
| – | – | – | – | – | – | < 1.2 | – | – | < 1.2 | – | – | – | Clc1cccc(CSc2nnc(-c3cnccn3)o2)c1Cl | – | – |
| – | < 1.2 | – | – | < 1.2 | < 1.2 | < 1.2 | < 1.2 | < 1.2 | < 1.2 | – | – | – | O=c1oc(-c2cnccn2)nn1Cc1ccccc1Cl | – | – |
| – | – | – | – | – | – | < 1.2 | – | – | < 1.2 | – | – | – | Clc1ccc(CSc2nnc(-c3cnccn3)o2)c(Cl)c1 | – | – |
| – | – | – | – | < 1.2 | – | < 1.2 | – | – | – | – | – | – | Cc1ccccc1CSc1nnc(-c2cnccn2)o1 | – | – |
| – | > 1.2 | 2.3 | 880 | > 1.2 | > 1.2 | > 1.2 | > 1.2 | > 1.2 | < 1.2 | – | – | – | FC(F)(F)c1ccc(Cl)c(CSc2nnc(-c3cnccn3)o2)c1 | – | – |
| – | – | – | – | – | – | – | – | – | – | 205 | – | – | O=C([O-])Cc1ccccc1Nc1c(Cl)cccc1Cl.[Na+] [DICLOFENAC SODIUM] | – | – |
| – | < 1.2 | – | – | < 1.2 | < 1.2 | < 1.2 | < 1.2 | < 1.2 | < 1.2 | – | – | – | Clc1ccccc1CSc1nnc(-c2ccc[nH]2)o1 | – | – |
| – | < 1.2 | – | – | < 1.2 | < 1.2 | < 1.2 | < 1.2 | < 1.2 | < 1.2 | – | – | – | Clc1ccccc1CNc1nnc(-c2cnccn2)o1 | – | – |
| – | – | – | – | – | – | < 1.2 | – | – | < 1.2 | – | – | – | Fc1cccc(F)c1CSc1nnc(-c2cnccn2)o1 | – | – |
| – | > 1.2 | 2.3 | 600 | > 1.2 | > 1.2 | > 1.2 | > 1.2 | > 1.2 | < 1.2 | – | – | – | FC(F)(F)c1ccc(Br)c(CSc2nnc(-c3cnccn3)o2)c1 | – | – |
| – | > 1.2 | 1.9 | 9900 | > 1.2 | < 1.2 | > 1.2 | < 1.2 | < 1.2 | < 1.2 | – | – | – | Brc1ccc(Br)c(CSc2nnc(-c3cnccn3)o2)c1 | – | – |
